Assay results as given in publication PMC10322960 (European Journal of Drug Metabolism and Pharmacokinetics, 2023).
“Also recorded” adds a separate entry of the source. Where two headings read alike, the source gives them in different places.

Assays:
[1] = biological target: T1, OCT2 (Homo sapiens, UniProt O15244); test: OCT2 uptake substrate assay; assay type: in vitro ADME
T1 sequence (O15244 1-555): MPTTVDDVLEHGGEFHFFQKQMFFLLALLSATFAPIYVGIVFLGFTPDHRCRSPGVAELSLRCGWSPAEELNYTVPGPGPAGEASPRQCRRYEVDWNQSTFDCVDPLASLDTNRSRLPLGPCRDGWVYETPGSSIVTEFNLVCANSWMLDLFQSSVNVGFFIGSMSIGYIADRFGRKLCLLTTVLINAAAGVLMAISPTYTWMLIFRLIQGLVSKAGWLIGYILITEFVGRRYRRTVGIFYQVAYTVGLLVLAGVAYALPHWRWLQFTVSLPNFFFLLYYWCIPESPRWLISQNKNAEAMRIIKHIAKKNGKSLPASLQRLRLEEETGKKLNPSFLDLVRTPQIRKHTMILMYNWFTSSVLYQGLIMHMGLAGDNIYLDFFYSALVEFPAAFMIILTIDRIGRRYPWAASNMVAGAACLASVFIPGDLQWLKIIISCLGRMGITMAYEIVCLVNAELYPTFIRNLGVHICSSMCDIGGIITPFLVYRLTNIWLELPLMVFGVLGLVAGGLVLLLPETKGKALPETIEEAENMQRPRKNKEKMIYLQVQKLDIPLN

[2] = biological target: T2, MDR1 (Homo sapiens, UniProt P08183); test: MDR1 vesicular transport inhibition assay; assay type: in vitro ADME
[3] = Phase 1 clinical drug–drug interaction study, safety assessment; assay type: in vivo, human
[4] = biological target: CYP2D6 (Homo sapiens, UniProt P10635); test: In vitro P450 inhibition, recombinant CYP2D6; assay type: in vitro ADME
[5] = following 0.5-mg dose at steady state; not from this study, ref not given; cited from earlier work
[6] = biological target: T2, MDR1; test: MDR1 monolayer substrate assay; assay type: in vitro ADME
[7] = biological target: T3, OAT1 (Homo sapiens, UniProt Q4U2R8); test: OAT1 uptake inhibition assay; assay type: in vitro ADME; conditions: 0.63–40 μM
T3 sequence (Q4U2R8 1-563): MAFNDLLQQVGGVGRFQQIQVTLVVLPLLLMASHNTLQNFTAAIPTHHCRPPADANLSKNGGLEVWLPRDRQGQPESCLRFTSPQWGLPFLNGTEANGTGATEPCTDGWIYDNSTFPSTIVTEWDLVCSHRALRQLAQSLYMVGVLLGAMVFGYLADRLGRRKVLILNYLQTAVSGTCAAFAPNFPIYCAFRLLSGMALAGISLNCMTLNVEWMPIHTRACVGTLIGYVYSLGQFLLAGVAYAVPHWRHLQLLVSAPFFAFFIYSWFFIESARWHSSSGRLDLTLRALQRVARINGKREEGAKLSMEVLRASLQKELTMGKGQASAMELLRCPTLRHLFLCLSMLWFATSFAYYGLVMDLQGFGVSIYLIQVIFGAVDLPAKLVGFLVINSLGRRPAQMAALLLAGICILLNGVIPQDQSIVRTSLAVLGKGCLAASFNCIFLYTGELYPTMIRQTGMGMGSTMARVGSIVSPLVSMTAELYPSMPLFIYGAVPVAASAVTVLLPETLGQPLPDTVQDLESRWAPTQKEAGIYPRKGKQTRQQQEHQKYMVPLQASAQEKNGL

[8] = biological target: T3, OAT1; test: OAT1 uptake substrate assay; assay type: in vitro ADME
[9] = test system: CYP1A2; conditions: ocedurenone at 0.1, 1, or 10 μM, 72 h; inducer criterion 40%
[10] = biological target: CYP2C9 (Homo sapiens, UniProt P11712); test: In vitro P450 inhibition, recombinant CYP2C9; assay type: in vitro ADME
[11] = biological target: BSEP (Homo sapiens, UniProt O95342); test: BSEP vesicular transport inhibition assay; assay type: in vitro ADME
[12] = biological target: CYP3A4 (Homo sapiens, UniProt P08684); assay type: in vitro ADME
[13] = test system: CYP3A4; conditions: ocedurenone at 0.1, 1, or 10 μM, 72 h; inducer criterion 40%
[14] = transporter-expressing vs control cells, 0.04–40 µm
[15] = first vesicular transport run, 40 µM
[16] = Cohort 2, 12 subjects, mild in severity
[17] = rifampin cohort, 12 participants

Chain of CYP3A4 (Homo sapiens, UniProt P08684) (P08684 whole entry): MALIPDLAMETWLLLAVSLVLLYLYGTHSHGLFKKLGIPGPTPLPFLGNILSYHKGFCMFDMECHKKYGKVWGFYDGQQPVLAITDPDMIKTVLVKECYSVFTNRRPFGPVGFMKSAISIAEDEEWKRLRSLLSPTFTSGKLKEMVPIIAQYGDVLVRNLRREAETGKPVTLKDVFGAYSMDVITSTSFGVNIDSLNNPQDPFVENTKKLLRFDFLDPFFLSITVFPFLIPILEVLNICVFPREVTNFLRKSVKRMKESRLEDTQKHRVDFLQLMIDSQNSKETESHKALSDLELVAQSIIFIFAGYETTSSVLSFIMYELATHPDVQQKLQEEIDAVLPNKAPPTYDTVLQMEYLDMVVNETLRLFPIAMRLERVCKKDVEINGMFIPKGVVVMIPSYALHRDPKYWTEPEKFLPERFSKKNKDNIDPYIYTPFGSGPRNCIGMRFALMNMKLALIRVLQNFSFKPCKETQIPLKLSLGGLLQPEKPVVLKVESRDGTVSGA
T2 sequence (P08183 whole entry): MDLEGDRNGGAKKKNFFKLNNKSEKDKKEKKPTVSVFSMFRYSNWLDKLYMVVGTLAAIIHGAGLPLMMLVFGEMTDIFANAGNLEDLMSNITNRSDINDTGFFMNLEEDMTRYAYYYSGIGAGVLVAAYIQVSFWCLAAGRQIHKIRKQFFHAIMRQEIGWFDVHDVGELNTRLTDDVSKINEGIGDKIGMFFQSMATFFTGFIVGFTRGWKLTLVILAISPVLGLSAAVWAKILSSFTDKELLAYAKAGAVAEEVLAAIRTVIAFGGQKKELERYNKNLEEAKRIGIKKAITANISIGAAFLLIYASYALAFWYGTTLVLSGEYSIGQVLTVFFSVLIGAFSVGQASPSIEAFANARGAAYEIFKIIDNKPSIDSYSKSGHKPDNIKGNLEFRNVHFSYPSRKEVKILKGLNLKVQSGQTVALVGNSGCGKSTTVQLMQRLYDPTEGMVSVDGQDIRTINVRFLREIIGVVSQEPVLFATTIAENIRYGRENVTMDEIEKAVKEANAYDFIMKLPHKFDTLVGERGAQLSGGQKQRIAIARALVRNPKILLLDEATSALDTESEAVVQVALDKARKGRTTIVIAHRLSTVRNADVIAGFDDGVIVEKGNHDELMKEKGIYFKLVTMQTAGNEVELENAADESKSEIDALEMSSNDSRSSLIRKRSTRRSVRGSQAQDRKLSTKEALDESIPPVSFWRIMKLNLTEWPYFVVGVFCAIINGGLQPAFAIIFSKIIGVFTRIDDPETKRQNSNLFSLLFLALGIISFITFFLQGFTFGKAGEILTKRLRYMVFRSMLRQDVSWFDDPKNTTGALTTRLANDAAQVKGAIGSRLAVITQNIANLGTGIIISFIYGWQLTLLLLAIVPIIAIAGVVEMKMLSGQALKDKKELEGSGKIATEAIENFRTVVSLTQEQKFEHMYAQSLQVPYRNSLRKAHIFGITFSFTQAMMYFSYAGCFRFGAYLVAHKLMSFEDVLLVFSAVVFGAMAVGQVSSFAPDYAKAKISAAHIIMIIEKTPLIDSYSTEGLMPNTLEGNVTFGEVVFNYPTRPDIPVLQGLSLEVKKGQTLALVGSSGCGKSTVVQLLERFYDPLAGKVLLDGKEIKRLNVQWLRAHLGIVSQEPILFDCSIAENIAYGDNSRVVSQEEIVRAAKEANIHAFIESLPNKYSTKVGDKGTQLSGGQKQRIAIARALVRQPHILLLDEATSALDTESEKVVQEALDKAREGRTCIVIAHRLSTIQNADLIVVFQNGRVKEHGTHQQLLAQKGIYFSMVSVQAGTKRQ
Chain of CYP2D6 (P10635 whole entry): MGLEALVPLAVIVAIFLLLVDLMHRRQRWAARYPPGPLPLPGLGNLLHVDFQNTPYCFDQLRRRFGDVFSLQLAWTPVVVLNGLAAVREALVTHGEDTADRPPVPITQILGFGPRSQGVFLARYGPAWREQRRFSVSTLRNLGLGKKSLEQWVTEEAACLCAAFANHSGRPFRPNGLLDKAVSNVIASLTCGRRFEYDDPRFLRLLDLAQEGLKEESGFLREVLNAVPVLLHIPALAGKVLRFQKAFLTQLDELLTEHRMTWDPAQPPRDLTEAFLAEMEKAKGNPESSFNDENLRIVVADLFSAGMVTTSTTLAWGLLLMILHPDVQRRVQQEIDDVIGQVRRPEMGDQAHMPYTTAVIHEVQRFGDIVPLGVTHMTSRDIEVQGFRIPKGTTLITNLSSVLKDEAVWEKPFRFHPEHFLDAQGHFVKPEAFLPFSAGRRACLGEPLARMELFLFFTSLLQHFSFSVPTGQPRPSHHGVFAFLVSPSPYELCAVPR
Chain of CYP2C9 (P11712 whole entry): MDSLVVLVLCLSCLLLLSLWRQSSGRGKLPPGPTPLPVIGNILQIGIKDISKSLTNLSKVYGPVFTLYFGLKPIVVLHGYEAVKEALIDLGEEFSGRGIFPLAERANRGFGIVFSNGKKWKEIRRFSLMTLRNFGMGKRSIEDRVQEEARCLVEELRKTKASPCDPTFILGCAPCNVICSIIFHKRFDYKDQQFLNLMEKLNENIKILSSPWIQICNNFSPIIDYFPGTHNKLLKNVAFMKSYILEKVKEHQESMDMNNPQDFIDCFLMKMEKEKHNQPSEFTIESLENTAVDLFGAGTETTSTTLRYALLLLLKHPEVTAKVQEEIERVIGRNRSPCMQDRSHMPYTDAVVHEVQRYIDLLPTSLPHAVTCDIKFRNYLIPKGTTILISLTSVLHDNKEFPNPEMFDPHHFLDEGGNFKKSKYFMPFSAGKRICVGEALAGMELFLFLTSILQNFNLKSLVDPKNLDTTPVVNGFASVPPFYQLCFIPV
Chain of BSEP (O95342 whole entry): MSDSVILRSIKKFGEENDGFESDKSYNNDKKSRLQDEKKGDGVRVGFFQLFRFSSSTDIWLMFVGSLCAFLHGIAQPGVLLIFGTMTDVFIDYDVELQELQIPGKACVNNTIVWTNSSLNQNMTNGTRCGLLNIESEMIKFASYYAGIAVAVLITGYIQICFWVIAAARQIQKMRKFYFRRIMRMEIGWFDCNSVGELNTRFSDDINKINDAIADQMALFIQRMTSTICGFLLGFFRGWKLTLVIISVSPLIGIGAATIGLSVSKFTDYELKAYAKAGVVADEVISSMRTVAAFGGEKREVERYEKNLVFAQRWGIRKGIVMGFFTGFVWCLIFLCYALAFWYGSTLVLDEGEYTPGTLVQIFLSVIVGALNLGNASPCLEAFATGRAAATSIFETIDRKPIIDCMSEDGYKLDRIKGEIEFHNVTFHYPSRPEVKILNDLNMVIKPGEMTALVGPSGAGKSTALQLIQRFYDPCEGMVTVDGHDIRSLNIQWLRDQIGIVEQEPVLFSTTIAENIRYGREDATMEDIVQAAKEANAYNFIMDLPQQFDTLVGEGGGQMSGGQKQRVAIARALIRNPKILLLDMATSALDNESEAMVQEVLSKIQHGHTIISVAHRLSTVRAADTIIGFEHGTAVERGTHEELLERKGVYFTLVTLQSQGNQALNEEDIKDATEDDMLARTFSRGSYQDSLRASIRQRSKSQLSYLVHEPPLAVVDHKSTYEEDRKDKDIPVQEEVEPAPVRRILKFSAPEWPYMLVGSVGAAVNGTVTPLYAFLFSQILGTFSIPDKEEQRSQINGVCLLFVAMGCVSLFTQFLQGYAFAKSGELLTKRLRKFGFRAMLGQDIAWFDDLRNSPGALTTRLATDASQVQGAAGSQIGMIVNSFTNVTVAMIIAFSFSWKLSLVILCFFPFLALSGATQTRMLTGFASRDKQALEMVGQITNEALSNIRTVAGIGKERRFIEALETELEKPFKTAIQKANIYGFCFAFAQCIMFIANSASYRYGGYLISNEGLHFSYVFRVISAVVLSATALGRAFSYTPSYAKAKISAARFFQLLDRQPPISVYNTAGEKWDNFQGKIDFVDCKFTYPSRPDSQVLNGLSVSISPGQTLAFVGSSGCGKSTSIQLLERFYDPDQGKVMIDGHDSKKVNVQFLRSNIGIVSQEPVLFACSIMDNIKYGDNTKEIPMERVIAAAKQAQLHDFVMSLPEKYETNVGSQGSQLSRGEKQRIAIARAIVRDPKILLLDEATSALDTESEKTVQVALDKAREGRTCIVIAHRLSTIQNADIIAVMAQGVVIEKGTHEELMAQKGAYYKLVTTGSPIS

N#Cc1ccc(N2N=C3c4ccc(C(=O)N5CCC(O)CC5)nc4CC[C@@H]3[C@@H]2C2CCCC2)cc1Cl [Ocedurenone, ocedurenone]
Substrate, OCT2 UPT [1]: not likely to be a substrate
Maximum fold accumulation, OCT2 UPT [1, 14]: 1.0
inhibition of MDR1 at 40 µM [2, 15]: 99%
IC50 ([2]; read-out: Inhibition results (IC50), MDR1 VT, probe NMQ (1 µm)): 2.5 µM
maximum inhibition of MDR1-mediated transport ([2]; repeat with 7 concentrations): 100%
treatment-emergent AEs considered related to ocedurenone ([3]; Cohort 1 (itraconazole cohort), 12 subjects): No treatment-emergent AEs; also recorded: no treatment-emergent adverse events
number of treatment-emergent AEs considered related to the drug [3, 16]: 5
subjects with treatment-emergent AEs considered related to the drug [3, 16]: 25.0%
participants with headache (TEAE related to ocedurenone) [3, 17]: 16.7%
participants with hyperhidrosis (TEAE related to ocedurenone) [3, 17]: 8.3%
participants with nausea (TEAE related to ocedurenone) [3, 17]: 8.3%
participants with nervousness (TEAE related to ocedurenone) [3, 17]: 8.3%
tolerability ([3]; single 0.5-mg dose alone and with itraconazole or rifampin, healthy participants): safe and well-tolerated
percent remaining activity of CYP2D6 ([4]; ocedurenone at 200 μM): 87.8%
IC50 ([4]; read-out: IC50 CYP2D6, recombinant CYP): > 200 µM
inhibition category CYP2D6 ([4]; recombinant enzyme): little or no inhibition
plasma Cmax at steady state [5]: 0.032 to 0.04 µg/mL
Substrate, MDR1 ML [6]: likely a substrate
interaction with human OAT1 transporter (inhibition) [7]: No interaction
Substrate, OAT1 UPT [8]: not likely to be a substrate
Maximum fold accumulation, OAT1 UPT [8, 14]: 1.1
percent CYP1A2 induction (of positive control) [9]: lower than 40%
percent remaining activity of CYP2C9 ([10]; ocedurenone at 200 μM): 70.2%
IC50 ([10]; read-out: IC50 CYP2C9, recombinant CYP): > 200 µM
inhibition category CYP2C9 ([10]; recombinant enzyme): little or no inhibition
inhibition of BSEP at 40 µM [11, 15]: 79%
maximum inhibition of BSEP-mediated transport ([11]; repeat with 7 concentrations): 71%
percent remaining activity of CYP3A4 (midazolam-based) ([12]; ocedurenone at 200 μM, midazolam probe): 70.2%
percent remaining activity of CYP3A4 (testosterone-based) ([12]; ocedurenone at 200 μM, testosterone probe): 68.1%
IC50 ([12]; read-out: IC50 CYP3A4 (midazolam-based), midazolam probe): > 200 µM
IC50 ([12]; read-out: IC50 CYP3A4 (testosterone-based), testosterone probe): > 200 µM
inhibition category CYP3A4 ([12]; recombinant enzyme): little or no inhibition
percent CYP3A4 induction (of positive control) [13]: lower than 40%
